In publication PMC5337940, “Sansanmycin natural product analogues as potent and selective anti-mycobacterials that inhibit lipid I biosynthesis” (Nature Communications, 2017):
Converted amounts (≈) assume the structure as drawn. Read-outs that look alike come from different tables or passages of the source.

Experiments:
Mtb H37Rv = test: Resazurin reduction microplate assay, growth inhibition of Mtb H37Rv; format: cell-based, Mycobacterium tuberculosis
Mtb MurX = Mtb MurX (Mycobacterium tuberculosis, UniProt P9WMW7); test: Radiochemical (TLC) MurX-MurG coupled inhibition assay in Mtb mc2 6230 membranes; format: biochemical; conditions: 200 nM inhibitor, decrease in lipid II formation
HEK293 cells = test: Cytotoxicity counter-screen, resazurin reduction microplate assay; format: cell-based; conditions: Homo sapiens, tested up to 200 μM, read-out: MIC50 (HEK293)
[1] = Mycobacterium tuberculosis, H37RV, average of two independent experiments, each in triplicate, read-out: MIC50 Mtb H37Rv
[2] = average of two independent experiments, each in triplicate

Mtb MurX, sequence (P9WMW7 whole entry): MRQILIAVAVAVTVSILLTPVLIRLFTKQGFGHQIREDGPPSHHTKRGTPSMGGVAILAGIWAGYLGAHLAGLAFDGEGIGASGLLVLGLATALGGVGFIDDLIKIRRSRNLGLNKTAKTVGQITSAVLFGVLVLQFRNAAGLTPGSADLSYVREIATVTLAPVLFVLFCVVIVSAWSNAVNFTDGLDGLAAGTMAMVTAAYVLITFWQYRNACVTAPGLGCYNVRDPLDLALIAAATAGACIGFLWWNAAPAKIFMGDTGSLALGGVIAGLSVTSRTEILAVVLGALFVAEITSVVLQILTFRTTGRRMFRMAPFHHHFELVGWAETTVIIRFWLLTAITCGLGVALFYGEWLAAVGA

## CSCC[C@H](NC(=O)N[C@@H](Cc1c[nH]c2ccccc12)C(=O)O)C(=O)N[C@H](C(=O)NC[C@H]1C[C@@H](O)[C@H](n2ccc(=O)[nH]c2=O)O1)[C@H](C)N(C)C(=O)[C@@H](N)c1cccc(O)c1 [Compound 4, Dihydrosansanmycin A]
Mtb H37Rv; [1]
  MIC50: 0.5 ± 0.05 µM (≈ 0.426 µg/mL)
Mtb MurX
  inhibition at 0.2 µM: 68%
HEK293 cells
  CC50: > 200 µM

## C[C@@H]([C@H](NC(=O)[C@@H](NC(=O)N[C@@H](Cc1c[nH]c2ccccc12)C(=O)O)C1CCCCC1)C(=O)NC[C@H]1C[C@@H](O)[C@H](n2ccc(=O)[nH]c2=O)O1)N(C)C(=O)CN [Compound 24]
Mtb H37Rv; [1]
  MIC50: 0.51 ± 0.1 µM (≈ 0.392 µg/mL)
Mtb MurX
  inhibition at 0.2 µM: 41%
HEK293 cells
  CC50: > 200 µM

## CC(C)C[C@H](NC(=O)N[C@@H](Cc1c[nH]c2ccccc12)C(=O)O)C(=O)N[C@H](C(=O)NC[C@H]1C[C@@H](O)[C@H](n2ccc(=O)[nH]c2=O)O1)[C@H](C)N(C)C(=O)CN [Compound 12]
Mtb H37Rv; [1]
  MIC50: 0.63 ± 0.17 µM (≈ 0.467 µg/mL)
Mtb H37Rv; average of two independent experiments, each in triplicate, read-out: MIC50 Mtb H37Rv
  MIC50: 0.63 µM (≈ 0.467 µg/mL)
Mtb MurX
  inhibition at 0.2 µM: 9%
HEK293 cells
  CC50: > 200 µM

## CC(C)C[C@H](NC(=O)N[C@@H](Cc1c[nH]c2ccccc12)C(=O)O)C(=O)N[C@H](C(=O)NC[C@H]1C[C@@H](O)[C@H](n2ccc(=O)[nH]c2=O)O1)[C@H](C)N(C)C(=O)[C@@H](N)Cc1cccnc1 [Compound 8]
Mtb H37Rv; [1]
  MIC50: 5.85 ± 2.33 µM (≈ 4.87 µg/mL)
Mtb MurX
  inhibition at 0.2 µM: 5%
HEK293 cells
  CC50: > 200 µM

## C[C@@H]([C@H](NC(=O)[C@H](Cc1cccnc1)NC(=O)N[C@@H](Cc1c[nH]c2ccccc12)C(=O)O)C(=O)NC[C@H]1C[C@@H](O)[C@H](n2ccc(=O)[nH]c2=O)O1)N(C)C(=O)CN [Compound 32]
Mtb MurX
  inhibition at 0.2 µM: 52%
HEK293 cells
  CC50: > 200 µM

## NNC(=O)c1ccncc1 [INH, isoniazid, reference compound]
Mtb H37Rv; [1]
  MIC50: 0.025 ± 0.005 µM (≈ 0.00343 µg/mL)

## C[C@@H]([C@H](NC(=O)[C@@H](NC(=O)N[C@@H](Cc1c[nH]c2ccccc12)C(=O)O)c1ccccc1)C(=O)NC[C@H]1C[C@@H](O)[C@H](n2ccc(=O)[nH]c2=O)O1)N(C)C(=O)CN [Compound 34]
Mtb H37Rv; [1]
  MIC50: > 6.25 µM
Mtb MurX
  inhibition at 0.2 µM: 51%
HEK293 cells
  CC50: > 200 µM

## CC(C)C[C@H](NC(=O)N[C@@H](Cc1c[nH]c2ccccc12)C(=O)O)C(=O)N[C@H](C(=O)NC[C@H]1C[C@@H](O)[C@H](n2ccc(=O)[nH]c2=O)O1)[C@H](C)N(C)C(=O)[C@@H](N)CC(=O)O [Compound 14]
Mtb H37Rv; Mycobacterium tuberculosis, H37RV, read-out: MIC50 Mtb H37Rv
  MIC50: 9.8 ± 1.1 µM (≈ 7.84 µg/mL)
Mtb MurX
  inhibition at 0.2 µM: 8%
HEK293 cells
  CC50: > 200 µM

## CCCCC[C@H](NC(=O)N[C@@H](Cc1c[nH]c2ccccc12)C(=O)O)C(=O)N[C@H](C(=O)NC[C@H]1C[C@@H](O)[C@H](n2ccc(=O)[nH]c2=O)O1)[C@H](C)N(C)C(=O)CN [Compound 23]
Mtb H37Rv; [1]
  MIC50: 0.51 ± 0.12 µM (≈ 0.385 µg/mL)
Mtb MurX
  inhibition at 0.2 µM: 59%
HEK293 cells
  CC50: > 200 µM

## CC(C)[C@H](NC(=O)N[C@@H](Cc1c[nH]c2ccccc12)C(=O)O)C(=O)N[C@H](C(=O)NC[C@H]1C[C@@H](O)[C@H](n2ccc(=O)[nH]c2=O)O1)[C@H](C)N(C)C(=O)CN [Compound 22]
Mtb H37Rv; [1]
  MIC50: 0.88 ± 0.12 µM (≈ 0.64 µg/mL)
Mtb MurX
  inhibition at 0.2 µM: 26%
HEK293 cells
  CC50: > 200 µM

## C[C@@H]([C@H](NC(=O)[C@H](CCCCN)NC(=O)N[C@@H](Cc1c[nH]c2ccccc12)C(=O)O)C(=O)NC[C@H]1C[C@@H](O)[C@H](n2ccc(=O)[nH]c2=O)O1)N(C)C(=O)CN [Compound 28]
Mtb H37Rv; Mycobacterium tuberculosis, H37RV, Mtb H37Rv, read-out: MIC50 against Mtb
  MIC50: 0.7 µM (≈ 0.53 µg/mL)
Mtb H37Rv; [1]
  MIC50: 0.7 ± 0.1 µM (≈ 0.53 µg/mL)
Mtb MurX
  inhibition at 0.2 µM: 47%
HEK293 cells
  CC50: > 200 µM

## C[C@@H]([C@H](NC(=O)[C@H](CCc1ccccc1)NC(=O)N[C@@H](Cc1c[nH]c2ccccc12)C(=O)O)C(=O)NC[C@H]1C[C@@H](O)[C@H](n2ccc(=O)[nH]c2=O)O1)N(C)C(=O)CN [Compound 35]
Mtb H37Rv; [1]
  MIC50: 1.08 ± 0.1 µM (≈ 0.853 µg/mL)
HEK293 cells
  CC50: > 200 µM

## CC(C)C[C@H](NC(=O)N[C@@H](Cc1c[nH]c2ccccc12)C(=O)O)C(=O)N[C@H](C(=O)NC[C@H]1C[C@@H](O)[C@H](n2ccc(=O)[nH]c2=O)O1)[C@H](C)N(C)C(=O)[C@@H](N)C1CCCCC1 [Compound 11]
Mtb H37Rv; [1]
  MIC50: 1.1 ± 0.84 µM (≈ 0.906 µg/mL)
Mtb H37Rv; [2]
  MIC50 Mtb H37Rv: 0.95 to 1.35 µM
Mtb MurX
  inhibition at 0.2 µM: 14%
HEK293 cells
  CC50: > 200 µM

## C[C@H](O)[C@H](NC(=O)N[C@@H](Cc1c[nH]c2ccccc12)C(=O)O)C(=O)N[C@H](C(=O)NC[C@H]1C[C@@H](O)[C@H](n2ccc(=O)[nH]c2=O)O1)[C@H](C)N(C)C(=O)CN [Compound 26]
Mtb H37Rv; [1]
  MIC50: 2.8 µM (≈ 2.04 µg/mL)
Mtb H37Rv; [2]
  MIC50 Mtb H37Rv: 2.80 ± 0.70 µM (≈ 2.04 µg/mL)
Mtb MurX
  inhibition at 0.2 µM: 40%
HEK293 cells
  CC50: > 200 µM

## C[C@@H]([C@H](NC(=O)[C@H](Cc1ccc(C(F)(F)F)cc1)NC(=O)N[C@@H](Cc1c[nH]c2ccccc12)C(=O)O)C(=O)NC[C@H]1C[C@@H](O)[C@H](n2ccc(=O)[nH]c2=O)O1)N(C)C(=O)CN [Compound 30]
Mtb H37Rv; [1]
  MIC50: 0.2 ± 0.06 µM (≈ 0.169 µg/mL)
Mtb MurX
  inhibition at 0.2 µM: 100%
HEK293 cells
  CC50: > 200 µM
